In patent US10112881B2, “Skin lightening compounds” (WiSys Technology Foundation, Inc., priority 2014, dated 2018):
“Also recorded” adds a separate entry of the source.

What was measured:
zebrafish embryos [1] = settings: embryos incubated 24 to 72 hpf
Description: Zebrafish embryos were incubated in compounds from 24 hpf (hours post fertilization) to 72 hpf.
(§1) The testing protocols for these compounds are as follows: • a. To test the inhibition of pigment formation, the zebrafish embryos were treated with the drugs from 24 to 72 hours post-fertilization (hpf). The embryos were monitored and imaged throughout their development to track the development of melanin pigment relative to a control group to which water was administered (Protocol 1). • b. […] The embryos were again monitored and imaged throughout their development relative to a control group to which water was administered (Protocol 2). • c. Additionally, to test the ability of the pigment to recover after being treated with our drugs, all embryos were treated at 24 hpf with the chemicals until the 68 hpf or 72 hpf time period, then washed with water to remove the treatment. The embryos were again monitored and imaged throughout their development relative to a control group to which water was administered (Protocol 3). Comparison of Skin-Lightening Compounds
The black pigment (or melanin) is very easy to observe in zebrafish. In brief, adult zebrafish are taken to breed embryos. Morphologically normal embryos of 24 hours post fertilization (hpf) stage will be selected for incubation in the drugs from 24 to 72 hours. During the incubation, the embryos are monitored and imaged (see FIG. 1) to track the development of melanin. […] To broaden the comparison with other skin-lightening products, this project can also test other compounds, kojic acid, gallic acid, (2-Morpholinobutyl)-4-thiophenol/MoTP and Haginin/phenoxidiol. […] In the meantime, the whole organism context also allows us to examine the toxicological profile, if any, of these compounds. The same protocol is also used for the experiments using the melanoma forming zebrafish.

zebrafish embryos [2] = assay: Apoptosis labeling in compound-treated embryos; type: in vivo; settings: fluorescence/enzymatic labeling
From the text: FIGS. 7A-7B are photographs and an associated graph illustrating the cell death by skin lightening compounds. Embryos treated with skin lightening compounds were fixed and processed for enzymatic labeling for apoptosis.
Although it is rare, one compound MoTP was reported to cause cell death specifically in melanocyte. We tested whether other skin lightening compounds can also cause melanocyte cell death. Using a fluorescence labeling assay, we were able to detect the apoptotic cells. Although we were not able to specifically identify apoptotic melanocyte due to technical difficulties, we were able to evaluate the overall cell death in the compound treated embryos.

[3] = tested on: Mouse melanoma cell line B16-F10; assay: Mouse melanoma cell proliferation (cell count after 48 hours); type: cell-based
From the text: (§2) Mouse melanoma cell line B16-F10 is a commonly used mammalian cells for melanogenesis and melanocyte studies. […] MoTP. […] The two graphs on top are cell number per 0.5 cubic mm. The Y axis in the lower two graphs is absorbance of 490 nm visible light by melanin. Higher absorbance means more melanin.
(§3) In this experiment, we first seeded approximately the same number of cells in each well of the 24-well plate supplied with fresh complete growth medium with different skin lightening compound. After 48 hours of incubation, we counted the cell numbers to evaluate the cell proliferation and lysed the cells from additional identically set-up wells and measured the total amount of melanin in treated melanoma.

[4] = tested on: Mouse melanoma cell line B16-F10; assay: Melanin content of mouse melanoma cells (absorbance 490 nm); type: cell-based; settings: 48 hours
From the text: as §2, §3

zebrafish embryos [5] = assay: Reduction of existing pigment in zebrafish embryos (Protocol 2); type: in vivo; settings: embryos incubated from 48 hpf to 68 hpf
Description: Embryos were incubated in compounds from 48 hpf when some pigments already formed to 68 hpf.
as §1
Thus, we compared the compound effect on existing pigment using older embryos at 48 hpf. The embryos were again monitored and imaged throughout their development according to Protocol 2.

dct mRNA = assay: Quantitative PCR of dct mRNA in treated embryos; type: in vivo, zebrafish; settings: qPCR
From the text: (§4) We also carried out qPCR to measure the dct mRNA expression.

[6] = tested on: dct-expressing cells (melanocyte precursors); assay: In situ hybridization for dct-expressing cells; type: in vivo, zebrafish; settings: cell counts
From the text: The cDNA of these genes was cloned and used to generate anti-sense RNA probes.
as §4

[7] = tested on: purified tyrosinase from mushroom; assay: In vitro tyrosinase assay (L-tyrosine to DOPAchrome, absorbance 490 nm); type: biochemical; settings: absorbance at 490 nm at 20', 60' and 120' of reaction
From the text: The assay is set up by mixing purified tyrosinase from mushroom with L-tyrosine with or without test chemical. Active tyrosinase will turn L-tyrosine into DOPAchrome which is orange color. The absorbance at 490 nm which reflects the amount of DOPAchrome and thus the tyrosinase activity was taken at 20′, 60′ and 120′ of reaction.
Most of the current skin-lightening compounds reduce pigment by inhibiting the melanin synthesis enzyme called tyrosinase (FIG. 5). […] The assay is usually done by mixing purified tyrosinase from mushroom with L-tyrosine, which is the substrate of tyrosinase, and with or without test chemical. Reaction with active tyrosinase will quickly turn L-tyrosine into a color product called dopachrome which is an intermediate product in the melanin synthesis pathway. The amount of dopachrome can be measured by a spectrophotometer at A490 nm visible light.

zebrafish embryos [8] = assay: Pigment recovery after chemical withdrawal (Protocol 3); type: in vivo; settings: treated 24-72 hpf, washed, imaged 24 hours after wash
Description: FIG. 4 are photographs of the pigment recovery after chemical withdrawal. Zebrafish embryos were treated with skin lightening compounds from 24-72 hpf followed by several washes to remove the compounds then incubated in […]. Twenty four hours after wash, the embryos were imaged.
Comparison of Skin-Lightening Compounds
It has been reported that melanin usually reappears after the withdrawal of skin lightening products. We studied this question by treating fish embryos from 24-72 hpf, according to Protocol 3, to create strong pigment reduction then wash off the compounds and track the pigment recovery. […] A drug with the ability to permanently remove or inhibit pigment might pose a concern of causing vitiligo.

Compound	inhibition of pigment formation (zebrafish embryos [1])	overall efficacy of the skin-lightening effects (rank order) (zebrafish embryos [1])	apoptosis / overall cell death in treated embryos (zebrafish embryos [2])	cell proliferation ([3]; concentration not given)	melanin synthesis / melanin amount ([4]; concentration not given)	reduction of existing pigment (zebrafish embryos [5])	dct mRNA expression (dct mRNA)	number of dct+ cells [6]	tyrosinase inhibition [7]	pigment recovery after chemical withdrawal (zebrafish embryos [8])	cell proliferation ([3]; 40 uM)	melanin synthesis / melanin amount ([4]; 10 uM)	melanin synthesis / melanin amount ([4]; 40 uM)	apoptosis / overall cell death in treated embryos (zebrafish embryos [2]; listed as Niacinamide)	reduction of existing pigment (zebrafish embryos [5]; listed as Phenoxidiol)	cell proliferation ([3]; 100 mM)
CC1=C(/C=C/C(C)=C/C=C/C(C)=C/C(=O)O)C(C)(C)CCC1 [tretinoin, Tretinoin]	different degrees of pigment inhibition	PTU=phenoxidiol=A11=MoTP>Arbutin>Niacinamide>Tretinoin>kojic acid>gallic acid	significant apoptosis	didn't seem to have any effect on melanocyte proliferation	significant reduction of melanin	minimal or no pigment reduction										
NC(=S)Nc1ccccc1 [PTU, phenylthiourea]	strong pigmentation inhibition	PTU=phenoxidiol=A11=MoTP>Arbutin>Niacinamide>Tretinoin>kojic acid>gallic acid		didn't seem to have any effect on melanocyte proliferation	significant reduction of melanin	moderately reduce existing pigment	slightly increase of dct expression	no effect on the number of dct expressing cells	strong inhibition	not so						
COc1cc(O)cc(/C=C/Oc2ccccc2C)c1 [A11, 2-Methylphenyl-E-(3-hydroxy-5-methoxy)-styryl ether]	strong pigmentation inhibition	PTU=phenoxidiol=A11=MoTP>Arbutin>Niacinamide>Tretinoin>kojic acid>gallic acid	no significant cell death			strong and quick pigment reduction; also recorded: strong in reducing existing pigment; also recorded: strong reduction of existing pigment	significantly lower expression of dct expression; also recorded: reduction of dct expression	fewer dct-positive cells; also recorded: significant lower number of dct+ cells	does not inhibit tyrosinase; also recorded: no inhibition at all		slightly inhibited the melanoma cell proliferation; also recorded: significantly inhibit the melanocyte proliferation	no melanin reduction	slight reduction; also recorded: reduced			
NC(=O)c1cccnc1 [niacinamide, Niacinamide]	different degrees of pigment inhibition	PTU=phenoxidiol=A11=MoTP>Arbutin>Niacinamide>Tretinoin>kojic acid>gallic acid	significant apoptosis		not									large increase of apoptosis		
(2-Morpholinobutyl)-4-thiophenol [MoTP]	strong pigmentation inhibition	PTU=phenoxidiol=A11=MoTP>Arbutin>Niacinamide>Tretinoin>kojic acid>gallic acid	slightly higher level of apoptosis; also recorded: slight increase of apoptosis	killed all the melanoma cells; also recorded: significantly inhibit the melanocyte proliferation		moderately reduce existing pigment; also recorded: strong reduction of existing pigment			enhancement of tyrosinase activity	limited recovery						
Oc1ccc(C2=Cc3ccc(O)cc3OC2)cc1 [phenoxidiol, phenoxidiol/haginin]	strong pigmentation inhibition	PTU=phenoxidiol=A11=MoTP>Arbutin>Niacinamide>Tretinoin>kojic acid>gallic acid	large increase of apoptosis; also recorded: significant apoptosis			strong in reducing existing pigment	significantly lower expression of dct expression; also recorded: reduction of dct expression	fewer dct-positive cells; also recorded: significant lower number of dct+ cells		not so					strong reduction of existing pigment	
OC[C@H]1O[C@@H](Oc2ccc(O)cc2)[C@H](O)[C@@H](O)[C@@H]1O [arbutin, Arbutin]	different degrees of pigment inhibition	PTU=phenoxidiol=A11=MoTP>Arbutin>Niacinamide>Tretinoin>kojic acid>gallic acid			significant reduction of melanin	moderately reduce existing pigment	slightly increase of dct expression		strong inhibition							significantly inhibit the melanocyte proliferation
N#CC(=C(N)Sc1ccccc1N)C(C#N)=C(N)Sc1ccccc1N [MEK-I]				didn't seem to have any effect on melanocyte proliferation	not		no change in dct expression	no effect on the number of dct expressing cells and not								
O=c1cc(CO)occ1O [kojic acid]	different degrees of pigment inhibition	PTU=phenoxidiol=A11=MoTP>Arbutin>Niacinamide>Tretinoin>kojic acid>gallic acid		significantly inhibit the melanocyte proliferation	significant reduction of melanin	minimal or no pigment reduction			strong inhibition							
O=C(O)c1cc(O)c(O)c(O)c1 [gallic acid]	different degrees of pigment inhibition	PTU=phenoxidiol=A11=MoTP>Arbutin>Niacinamide>Tretinoin>kojic acid>gallic acid							enhancement of tyrosinase activity							
